The source of these data is PubChem BioAssay (NCI).

Test systems include A498 renal; HCT-15 colon; IGROV1 ovarian; NCI-H23 lung; RPMI-8226 leukemia; SF-295 CNS; SNB-75 CNS; T-47D breast; U251 CNS; SR leukemia.
Common to all, as to assay: growth of human tumour cells (NCI), 48 h

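48-hour exposure; five concentrations; linearly interpolated endpoints. GI50: concentration for 50% inhibition of growth. TGI: total growth inhibition.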 Where only a bound is given, the exact number is not on record here.

As to `Cc1ccc(NC(=O)c2cc3ccccc3c(N=Nc3cc(S(=O)(=O)O)ccc3O)c2O)c(C)c1`, the TGI with A498 renal is more than 100 µM; in the experiment with HCT-15 colon it was more than 100 µM; in the experiment with IGROV1 ovarian, more than 100 µM; with NCI-H23 lung, 56.6 µM; with RPMI-8226 leukemia it was more than 100 µM; in the experiment on SF-295 CNS it was 88.9 µM. Further, the TGI in the experiment on SNB-75 CNS, with T-47D breast and with U251 CNS was more than 100 µM each time.
With `CCOC(=O)NC/C=C/COC1CCCCO1` (centres undefined), the TGI with A498 renal, with HCT-15 colon, with IGROV1 ovarian, in the experiment with RPMI-8226 leukemia, with SNB-75 CNS and in the experiment with SR leukemia was more than 100 µM in each case. In the experiment on U251 CNS, the TGI is more than 100 µM.
On to `COC(=O)c1ccccc1N1C(=O)Cc2ccccc2C1=O`, for which the TGI with HCT-15 colon is more than 100 µM; with IGROV1 ovarian, more than 100 µM; in the experiment with NCI-H23 lung it was more than 100 µM; in the experiment with RPMI-8226 leukemia it was more than 100 µM; in the experiment on SF-295 CNS it was more than 100 µM; in the experiment with SNB-75 CNS, 74 µM. Moreover, the TGI in the experiment with SR leukemia and in the experiment on U251 CNS was more than 100 µM throughout.
As to `CCCCCCCCCCCC(=O)N1CCN(C(C)=O)CC1`, the GI50 in the experiment on A498 renal is 62.7 µM; with HCT-15 colon, 40.2 µM; in the experiment on IGROV1 ovarian, 18.8 µM; in the experiment with NCI-H23 lung, 19.5 µM; in the experiment with RPMI-8226 leukemia, 16.8 µM; in the experiment on SF-295 CNS it was 26.6 µM. Moreover, the GI50 with SR leukemia is 22 µM; with U251 CNS it was 50.5 µM. Besides, the TGI in the experiment with A498 renal is more than 100 µM; in the experiment with HCT-15 colon, more than 100 µM; with IGROV1 ovarian, 42.5 µM; with NCI-H23 lung, 40.8 µM; in the experiment on RPMI-8226 leukemia, 35.7 µM; in the experiment with SF-295 CNS it was 63 µM. Further, the TGI in the experiment with SR leukemia is 53.5 µM; with U251 CNS, more than 100 µM.
Consider `O=C(OC1CCC2OOC1O2)c1ccc([N+](=O)[O-])cc1` (centres undefined), for which the TGI in the experiment with A498 renal, in the experiment with HCT-15 colon, with IGROV1 ovarian, in the experiment with NCI-H23 lung, in the experiment on RPMI-8226 leukemia and in the experiment with SF-295 CNS was more than 100 µM in each case. Besides, the TGI in the experiment with SNB-75 CNS, with SR leukemia and with U251 CNS was more than 100 µM each time.
In the case of `NC1CCCCC1N.O=[Se]([O-])[O-].[Pt+4]` (centres undefined), the GI50 in the experiment on A498 renal is 1.76 µM; in the experiment with HCT-15 colon, 0.747 µM; in the experiment on IGROV1 ovarian, 2.11 µM; in the experiment on NCI-H23 lung it was 1.51 µM; in the experiment with RPMI-8226 leukemia it was less than 0.0336 µM; in the experiment on SF-295 CNS it was 0.304 µM. Moreover, the figures for the GI50 with SNB-75 CNS and in the experiment on U251 CNS were 66.3 µM and 0.666 µM, respectively. In addition, the TGI was 24.8 µM with A498 renal; more than 45.5 µM in the experiment with HCT-15 colon; more than 46 µM in the experiment on IGROV1 ovarian; 17.1 µM in the experiment on NCI-H23 lung; more than 37.1 µM in the experiment on RPMI-8226 leukemia; 21.6 µM in the experiment with SF-295 CNS. Besides, the TGI is more than 100 µM in the experiment with SNB-75 CNS and 15.7 µM with U251 CNS.
With `O=[N+]([O-])c1cc([N+](=O)[O-])c(/C=C/c2ccc(Cl)c(Cl)c2)cc1/C=C/c1ccc(Cl)c(Cl)c1`, the TGI in the experiment with A498 renal is more than 100 µM; in the experiment with HCT-15 colon it was 58.9 µM; in the experiment on IGROV1 ovarian it was 66.8 µM; in the experiment with NCI-H23 lung it was 50.8 µM; with RPMI-8226 leukemia, 50.3 µM; with SF-295 CNS, 81 µM. The TGI in the experiment on SNB-75 CNS and in the experiment with U251 CNS was more than 100 µM each time.
For the compound `O=C(NCc1cccnc1)C1COc2cc(-c3cc(=O)c4ccccc4o3)ccc2O1` (centres undefined), the TGI is 99.7 µM in the experiment with A498 renal; more than 100 µM in the experiment with HCT-15 colon; more than 100 µM in the experiment with IGROV1 ovarian; more than 100 µM in the experiment with NCI-H23 lung; more than 100 µM in the experiment with RPMI-8226 leukemia; more than 69.8 µM in the experiment with SF-295 CNS. The values for the TGI with SNB-75 CNS, in the experiment on SR leukemia and in the experiment on U251 CNS were 28.8 µM, more than 100 µM and more than 100 µM, respectively.
On to `COc1cc(O)c2c(c1)O[C@@H]1OCC[C@H]21`, for which the TGI in the experiment with A498 renal, in the experiment on HCT-15 colon, in the experiment with IGROV1 ovarian, in the experiment with NCI-H23 lung, with RPMI-8226 leukemia and in the experiment with SF-295 CNS was more than 100 µM each time. Besides, the TGI in the experiment on SNB-75 CNS, in the experiment on SR leukemia and in the experiment on U251 CNS was more than 100 µM each time.
Take `Cc1cc(C)n(-c2ccnc3cc(Cl)ccc23)n1`: the TGI in the experiment with A498 renal, with HCT-15 colon, in the experiment with IGROV1 ovarian, with NCI-H23 lung, with RPMI-8226 leukemia and in the experiment with SF-295 CNS was more than 100 µM each time. Further, the TGI with SNB-75 CNS, in the experiment with SR leukemia and in the experiment on U251 CNS was more than 100 µM each time.
As to `C(=N\Nc1ccccc1)/c1nc2ccccc2nc1/C=N/Nc1ccccc1`, the TGI was found to be 31.1 µM in the experiment on A498 renal; 25.8 µM in the experiment on HCT-15 colon; 21.5 µM in the experiment with IGROV1 ovarian; 27.2 µM in the experiment on NCI-H23 lung; 30.5 µM in the experiment on SF-295 CNS; 31.4 µM in the experiment with SNB-75 CNS. For the same compound, in the experiment with SR leukemia, the TGI was more than 84.7 µM.
For the compound `CC1(Br)CC2OC3(Br)C=CC(C)(O)C2(CC1=O)C3(C)C` (centres undefined), the TGI in the experiment on A498 renal, in the experiment with HCT-15 colon, in the experiment on IGROV1 ovarian, with NCI-H23 lung, with RPMI-8226 leukemia and in the experiment on SF-295 CNS was more than 100 µM throughout. Besides, the TGI in the experiment on SNB-75 CNS, in the experiment with SR leukemia and in the experiment with U251 CNS was more than 100 µM throughout.
For `Nc1nc(Cl)cc(NCC(O)CO)n1` (centres undefined), the TGI in the experiment on A498 renal, in the experiment with HCT-15 colon, in the experiment on IGROV1 ovarian, in the experiment with NCI-H23 lung, in the experiment with RPMI-8226 leukemia and in the experiment with SF-295 CNS was more than 100 µM in each case. Moreover, the TGI in the experiment with SNB-75 CNS, with SR leukemia and with U251 CNS was more than 100 µM in each case.
`CCOC(=O)Cc1csc(Nc2ccc(OCC)cc2)n1`: the TGI in the experiment with A498 renal, in the experiment on HCT-15 colon, in the experiment with IGROV1 ovarian, with NCI-H23 lung, with RPMI-8226 leukemia and with SF-295 CNS was more than 100 µM in each case. Also, the TGI in the experiment on SNB-75 CNS, in the experiment on SR leukemia and with U251 CNS was more than 100 µM in each case.
